# From article PMC10148497, “Evaluation of Bacillus aryabhattai B8W22 peroxidase for phenol removal in waste water effluents” (BMC Microbiology, 2023)
# Test system: T1, peroxidase from Bacillus aryabhattai B8W22
# T1 construct: gene extracellular peroxidase; 66 kDa on SDS-PAGE
# Test: peroxidase activity assay, Lineweaver-Burk plot
# Assay type: biochemical, Priestia aryabhattai
# Conditions: co-substrate, pH and temperature of the kinetic assay not given
smiles,measurement,value
COc1ccccc1O [guaiacol],Km,6.942 mg/mL
